Measured values as given in ChEMBL document CHEMBL1201862, “PubChem BioAssay data set” (2004).
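Five compound concentrations were applied to cells in 96-well plates for 48 hours; endpoints were derived by simple linear interpolation of the resulting dose-response curve. The concentration for 50% growth inhibition is given as GI50.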 Calls of active or inactive are those of the source. Cut-off read from the data, not from the text of the source: active = GI50 up to about 1.1 µM and inactive = higher.

What was measured:
Experiment in all cases: NCI tumour cell line growth inhibition, 48 h
A549 = system: A549
COLO 205 = system: COLO 205
HL-60 = system: HL-60
HOP-92 = system: HOP-92
HT-29 = system: HT-29
IGROV-1 = system: IGROV-1
K562 = system: K562
M14 = system: M14
NCI-H226 = system: NCI-H226
OVCAR-4 = system: OVCAR-4
SK-OV-3 = system: SK-OV-3
SNB-19 = system: SNB-19
SR = system: SR
SW-620 = system: SW-620
U-251 = system: U-251
UACC-62 = system: UACC-62
MCF7 = system: MCF7
MDA-MB-231 = system: MDA-MB-231
MDA-MB-435 = system: MDA-MB-435
PC-3 = system: PC-3

Measured: GI50

N#C/C(=C\c1cc2ccccc2c2ccccc12)c1ccccc1
inactive: A549 7.46 µM | COLO 205 3.43 µM | HL-60 3.04 µM | HOP-92 > 37.6 µM | HT-29 4.45 µM | IGROV-1 11.8 µM | K562 3.13 µM | M14 6.05 µM | NCI-H226 43.8 µM | OVCAR-4 11.2 µM | SK-OV-3 6.73 µM | SNB-19 8.99 µM | SR 2.9 µM | SW-620 4.65 µM | U-251 5.78 µM | UACC-62 3.75 µM

c1ccc2c(c1)sc1c3cnccc3ccc21
inactive: A549 33.7 µM | COLO 205 90.8 µM | HL-60 40.6 µM | HT-29 99.8 µM | IGROV-1 25.3 µM | K562 > 100 µM | M14 > 100 µM | MCF7 24.1 µM | MDA-MB-231 > 100 µM | MDA-MB-435 > 100 µM | NCI-H226 24.2 µM | OVCAR-4 > 100 µM | SK-OV-3 > 100 µM | SNB-19 > 100 µM | SR 11.6 µM | SW-620 76.4 µM | U-251 > 100 µM | UACC-62 80.4 µM

N#CCCNCCN(CCN(C(=O)Nc1ccccc1)c1ccccc1)C(=O)Nc1ccccc1
inactive: A549 48.1 µM | COLO 205 20.2 µM | HL-60 35.9 µM | HOP-92 40.6 µM | HT-29 33.2 µM | IGROV-1 50.4 µM | K562 67 µM | M14 21.1 µM | MCF7 37.8 µM | MDA-MB-231 > 100 µM | NCI-H226 54.7 µM | PC-3 57.3 µM | SK-OV-3 > 100 µM | SNB-19 83.2 µM | SR 34.2 µM | SW-620 59.7 µM | U-251 > 100 µM | UACC-62 32.2 µM

CC(Oc1ccc2c(=O)cc(-c3ccccc3)oc2c1)C(=O)O (configuration not stated)
inactive: A549 > 100 µM | COLO 205 > 100 µM | HL-60 > 100 µM | HOP-92 > 100 µM | HT-29 > 100 µM | IGROV-1 > 100 µM | K562 > 100 µM | M14 > 100 µM | NCI-H226 > 100 µM | OVCAR-4 > 100 µM | SK-OV-3 > 100 µM | SNB-19 > 100 µM | SR > 100 µM | SW-620 > 100 µM | U-251 > 100 µM | UACC-62 > 100 µM

COc1ccc(NC(=O)COC(=O)c2cccc3c(=O)c4ccccc4[nH]c23)cc1
inactive: A549 20.3 µM | COLO 205 17.8 µM | HL-60 13.1 µM | HOP-92 25.1 µM | HT-29 16 µM | IGROV-1 27.4 µM | K562 17.2 µM | M14 29.6 µM | NCI-H226 23.1 µM | OVCAR-4 17.9 µM | SK-OV-3 30.2 µM | SNB-19 30.1 µM | SR 11.3 µM | SW-620 22.2 µM | U-251 19.5 µM | UACC-62 17.7 µM

Cc1cc(=O)[nH]c(-n2[nH]c(C)c(CCO)c2=O)n1
inactive: A549 > 100 µM | COLO 205 > 100 µM | HL-60 > 100 µM | HT-29 > 100 µM | IGROV-1 > 100 µM | K562 > 100 µM | M14 > 100 µM | MCF7 > 100 µM | MDA-MB-231 > 100 µM | MDA-MB-435 > 100 µM | NCI-H226 > 100 µM | OVCAR-4 > 100 µM | PC-3 > 100 µM | SK-OV-3 > 100 µM | SNB-19 > 100 µM | SW-620 > 100 µM | U-251 > 100 µM | UACC-62 > 100 µM

Cn1cc(C(=O)NCCC(=N)N)cc1NC(=O)C1=[N+](C)C=C(NC(=O)c2cccc(C(=O)NC3=CC(C(=O)Nc4cc(C(=O)NCCC(=N)N)cn4C)=[N+](C)C3)c2)C1
inactive: A549 > 100 µM | COLO 205 50.7 µM | HL-60 > 100 µM | HOP-92 > 100 µM | HT-29 > 100 µM | IGROV-1 > 100 µM | K562 83.8 µM | M14 > 100 µM | NCI-H226 > 100 µM | OVCAR-4 > 100 µM | SK-OV-3 > 100 µM | SNB-19 > 100 µM | SR > 100 µM | SW-620 > 100 µM | U-251 > 100 µM | UACC-62 37.8 µM

N#C/C(=C\c1c[nH]c2ccccc12)C(=O)c1ccc(O)c(O)c1
inactive: A549 26.1 µM | COLO 205 32.7 µM | HL-60 13.2 µM | HOP-92 32.1 µM | HT-29 28 µM | IGROV-1 24.6 µM | K562 23.2 µM | M14 38.5 µM | MCF7 12 µM | MDA-MB-435 20.8 µM | NCI-H226 47.4 µM | OVCAR-4 27.2 µM | PC-3 33.8 µM | SK-OV-3 43.5 µM | SNB-19 32.4 µM | SR 9.82 µM | SW-620 32.7 µM | U-251 20.4 µM | UACC-62 28.8 µM
